The record followed here is paper PMC10026625 (RSC Advances, 2023).

SMILES strings stand for the structures.

The experiment concerns SARS-CoV-2 ancestral Wuhan strain (OMC-510) / VeroE6/TMPRSS2 cells. To be noted: plaque reduction assay.

On to `CC[C@H](C)[C@H](NC(C)=O)C(=O)N[C@@H](CO)C(=O)NCC(=O)N[C@H](C(=O)N[C@@H](CC(N)=O)C(=O)N[C@@H](C)C(=O)N[C@@H](CO)C(=O)N[C@H](C(=O)N[C@H](C(=O)N[C@@H](CC(N)=O)C(=O)N[C@H](C(=O)N[C@@H](CCC(N)=O)C(=O)N[C@@H](CCC(=O)O)C(=O)N[C@@H](CCC(=O)O)C(=O)N[C@H](C(=O)N[C@@H](CCCCN)C(=O)N[C@@H](CCCNC(=N)N)C(=O)N[C@@H](CC(C)C)C(=O)N[C@@H](CC(N)=O)C(=O)N[C@@H](CCC(=O)O)C(=O)N[C@H](C(=O)N[C@@H](C)C(=O)N[C@@H](CCCCN)C(=O)N[C@@H](CCCCN)C(=O)N[C@@H](CC(C)C)C(=O)N[C@@H](CC(N)=O)C(=O)N[C@@H](CCC(=O)O)C(=O)N[C@@H](CO)C(=O)N[C@@H](CC(C)C)C(=O)N[C@H](C(=O)N[C@@H](CC(=O)O)C(=O)N[C@@H](CC(C)C)C(=O)N[C@@H](CCC(N)=O)C(=O)N[C@@H](CCC(=O)O)C(N)=O)[C@@H](C)CC)C(C)C)[C@@H](C)CC)[C@@H](C)CC)C(C)C)C(C)C)[C@@H](C)CC` [Peptide 3a], for which the “times higher antiviral activity than peptide 1a” value was roughly 4 times and the “times higher antiviral activity than peptide 2a” value was “approximately 10 times”.
